KUDP-GLCNAC data for 1 compound are collected here from patent US6703213B2, “Substrate analogs for MurG, methods of making same and assays using same” (The Trustees of Princeton University, priority 1998, dated 2004).

In this experiment the target is T1, wild type E. coli MurG (Escherichia coli, UniProt P17443).
T1 construct: made in house; host or cells: E. coli BL21(DE3)pLysS, pET3a vector
Description: Initial rate assays with purified, soluble enzyme. It is filed as biochemical. Particulars: rapid equilibrium sequential mechanism assumed; 0.08 μM purified MurG; UDP-GlcNAc as varied substrate. As to the method: The following solutions are prepared prior to the assays: 1) 177.3 μM [^14C]-UDP-GlcNAc in H2O (0.05 mCi/mL); 2) 1.5 mM UDP-GlcNAc in H2O; 3) biotinylated Lipid I analog (1b) at 0.5 μg/μL; 4) 10×reaction buffer containing 50 mM HEPES (pH 7.9) and 5 mM MgCl2. The enzyme stock is prepared by diluting the purified enzyme with TBSE to a final concentration of 0.04 μg/μL in a 0.5 mL tube and storing at 4° C. for two days prior to running the assays.
Thirty reactions are prepared by individually mixing 2 μL of 10×reaction buffer with an appropriate amount of biotinylated Lipid I analog (1b), radioactive UDP-GlcNAc, nonradioactive UDP-GlcNAc, and H2O to a final volume of 18 μl. The final concentration for the Lipid I analog (1b) are 7 μM, 10 μM, 15 μM, 30 μM, 100 μM, and for UDP-GlcNAc 11 μM, 15 μM, 20 μM, 40 μM, 100 μM, 200 μM. Reactions are initiated by adding 2 μL of the enzyme stock and are run for 4 minutes at 24° C. Reactions are stopped by adding 10 μl of 1% (w/v) SDS.
Deionized H2O is added to each tube to a final volume of approximately 250 μL and the suspension is transferred to a […] 96-well filter plate fitted to a vacuum-line fitted MultiScreen Assay System (Millipore). The resin is washed 15 times with 0.2 mL deionized H2O. […] Samples are counted immediately on a Beckman LS5000 scintillation counter.

T1 sequence (P17443 whole entry): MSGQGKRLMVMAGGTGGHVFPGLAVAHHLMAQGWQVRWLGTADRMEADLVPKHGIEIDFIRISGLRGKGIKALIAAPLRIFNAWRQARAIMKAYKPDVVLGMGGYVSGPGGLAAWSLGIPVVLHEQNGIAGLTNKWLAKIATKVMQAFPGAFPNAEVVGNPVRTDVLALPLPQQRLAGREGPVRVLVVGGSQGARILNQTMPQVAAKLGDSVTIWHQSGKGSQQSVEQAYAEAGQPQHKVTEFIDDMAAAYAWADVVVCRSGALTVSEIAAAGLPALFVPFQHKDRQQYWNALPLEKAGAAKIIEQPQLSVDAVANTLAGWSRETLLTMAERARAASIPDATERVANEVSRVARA

For the compound `CC(=O)N[C@H]1[C@@H](OP(=O)(O)OP(=O)(O)OC[C@H]2O[C@@H](n3ccc(=O)[nH]c3=O)[C@H](O)[C@@H]2O)O[C@H](CO)[C@@H](O)[C@@H]1O` [UDP-GLCNAC, UDP-N-acetylglucosamine], the KUDP-GLCNAC came to 110 µM.
